# Measurements as given in ChEMBL document CHEMBL1201862, “PubChem BioAssay data set” (2004).
#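 A five-concentration, 48-hour dose response in 96-well plates underlies each endpoint, interpolated linearly between surrounding concentrations. At the GI50, growth is halved.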 The source made the active and inactive calls. Rule as the data show it: active = GI50 up to about 1.1 µM and inactive = higher.
# Tests used:
# Assay in all cases: NCI-60 cell line screen, 48 h
# SK-MEL-5 = test system: SK-MEL-5
# LOX IMVI = test system: LOX IMVI
# UACC-257 = test system: UACC-257
# SF-539 = test system: SF-539
# Malme-3M = test system: Malme-3M
# Hs-578T = test system: Hs-578T
# BT-549 = test system: BT-549
# PC-3 = test system: PC-3
# OVCAR-5 = test system: OVCAR-5
# 786-0 = test system: 786-0
# DU-145 = test system: DU-145
# MDA-MB-231 = test system: MDA-MB-231
# SK-MEL-2 = test system: SK-MEL-2
# SK-MEL-28 = test system: SK-MEL-28
# M14 = test system: M14
# HT-29 = test system: HT-29
# HCC 2998 = test system: HCC 2998
# MOLT-4 = test system: MOLT-4
# SF-268 = test system: SF-268
# A549 = test system: A549
# NCI-H226 = test system: NCI-H226
# K562 = test system: K562
# IGROV-1 = test system: IGROV-1
# SF-295 = test system: SF-295
# RXF 393 = test system: RXF 393
# HOP-62 = test system: HOP-62
# RPMI-8226 = test system: RPMI-8226
# SNB-75 = test system: SNB-75
# U-251 = test system: U-251
# MDA-MB-435 = test system: MDA-MB-435
# A498 = test system: A498
# TK-10 = test system: TK-10
# OVCAR-3 = test system: OVCAR-3
# NCI-H522 = test system: NCI-H522
# SN12C = test system: SN12C
# KM12 = test system: KM12
# SW-620 = test system: SW-620
# MCF7 = test system: MCF7
# HOP-92 = test system: HOP-92
# NCI-H23 = test system: NCI-H23
# COLO 205 = test system: COLO 205
# SK-OV-3 = test system: SK-OV-3
# UO-31 = test system: UO-31
# EKVX = test system: EKVX
# T47D = test system: T47D
# MDA-N = test system: MDA-N
# SR = test system: SR
# NCI/ADR-RES = test system: NCI/ADR-RES
# ACHN = test system: ACHN
# OVCAR-8 = test system: OVCAR-8
# OVCAR-4 = test system: OVCAR-4
# CAKI-1 = test system: CAKI-1
# SNB-19 = test system: SNB-19
# CCRF-CEM = test system: CCRF-CEM
# UACC-62 = test system: UACC-62
# NCI-H460 = test system: NCI-H460
# HCT-116 = test system: HCT-116
# HCT-15 = test system: HCT-15
# HL-60 = test system: HL-60
smiles,measurement,setting,value
O=[N+]([O-])C(=C(N1CCCCC1)N1CCCCC1)/C(Cl)=C(\Cl)[N+](=O)[O-],GI50,SK-MEL-5,5.69 µM (inactive)
same,GI50,LOX IMVI,2.32 µM (inactive)
same,GI50,UACC-257,7.71 µM (inactive)
same,GI50,SF-539,9.1 µM (inactive)
same,GI50,Malme-3M,2.37 µM (inactive)
same,GI50,Hs-578T,4.86 µM (inactive)
same,GI50,BT-549,6.95 µM (inactive)
same,GI50,PC-3,14.3 µM (inactive)
same,GI50,OVCAR-5,17.9 µM (inactive)
same,GI50,786-0,3.42 µM (inactive)
same,GI50,DU-145,2.88 µM (inactive)
same,GI50,MDA-MB-231,7.59 µM (inactive)
same,GI50,SK-MEL-2,16.9 µM (inactive)
same,GI50,SK-MEL-28,16.8 µM (inactive)
same,GI50,M14,8.47 µM (inactive)
same,GI50,HT-29,4.74 µM (inactive)
same,GI50,HCC 2998,22.1 µM (inactive)
same,GI50,MOLT-4,1.14 µM (inactive)
same,GI50,SF-268,12.1 µM (inactive)
same,GI50,A549,19.5 µM (inactive)
same,GI50,NCI-H226,20.6 µM (inactive)
same,GI50,K562,1 µM (active)
same,GI50,IGROV-1,1.72 µM (inactive)
same,GI50,SF-295,21.5 µM (inactive)
same,GI50,RXF 393,1.31 µM (inactive)
same,GI50,HOP-62,15.6 µM (inactive)
same,GI50,RPMI-8226,2.18 µM (inactive)
same,GI50,SNB-75,17.5 µM (inactive)
same,GI50,U-251,18.7 µM (inactive)
same,GI50,MDA-MB-435,5.01 µM (inactive)
same,GI50,A498,17.9 µM (inactive)
same,GI50,TK-10,5.41 µM (inactive)
same,GI50,OVCAR-3,3.79 µM (inactive)
same,GI50,NCI-H522,1.76 µM (inactive)
same,GI50,SN12C,1.67 µM (inactive)
same,GI50,KM12,19.4 µM (inactive)
same,GI50,SW-620,3.36 µM (inactive)
same,GI50,MCF7,2.46 µM (inactive)
same,GI50,HOP-92,2.74 µM (inactive)
same,GI50,NCI-H23,5.6 µM (inactive)
same,GI50,COLO 205,5.01 µM (inactive)
same,GI50,SK-OV-3,23.2 µM (inactive)
same,GI50,UO-31,3.54 µM (inactive)
same,GI50,EKVX,13 µM (inactive)
same,GI50,T47D,1.84 µM (inactive)
same,GI50,MDA-N,5.94 µM (inactive)
same,GI50,SR,2.19 µM (inactive)
same,GI50,NCI/ADR-RES,22.7 µM (inactive)
same,GI50,ACHN,3.27 µM (inactive)
same,GI50,OVCAR-8,10.9 µM (inactive)
same,GI50,OVCAR-4,8.2 µM (inactive)
same,GI50,CAKI-1,1.19 µM (inactive)
same,GI50,SNB-19,19.9 µM (inactive)
same,GI50,CCRF-CEM,5.11 µM (inactive)
same,GI50,UACC-62,15 µM (inactive)
same,GI50,NCI-H460,22.5 µM (inactive)
same,GI50,HCT-116,2.61 µM (inactive)
same,GI50,HCT-15,2.17 µM
O=S(=O)(O)c1cccc2cccc(/N=N/c3c(O)ccc4ccccc34)c12,GI50,SK-MEL-5,> 100 µM (inactive)
same,GI50,UACC-257,> 100 µM (inactive)
same,GI50,SF-539,> 100 µM (inactive)
same,GI50,Malme-3M,> 100 µM (inactive)
same,GI50,Hs-578T,> 100 µM (inactive)
same,GI50,BT-549,> 100 µM (inactive)
same,GI50,PC-3,> 100 µM (inactive)
same,GI50,OVCAR-5,> 100 µM (inactive)
same,GI50,786-0,> 100 µM (inactive)
same,GI50,DU-145,> 100 µM (inactive)
same,GI50,MDA-MB-231,> 100 µM (inactive)
same,GI50,SK-MEL-2,> 100 µM (inactive)
same,GI50,M14,> 100 µM (inactive)
same,GI50,HT-29,> 100 µM (inactive)
same,GI50,HCC 2998,> 100 µM (inactive)
same,GI50,MOLT-4,> 100 µM (inactive)
same,GI50,SF-268,> 100 µM (inactive)
same,GI50,A549,> 100 µM (inactive)
same,GI50,NCI-H226,> 100 µM (inactive)
same,GI50,K562,> 100 µM (inactive)
same,GI50,IGROV-1,31.9 µM (inactive)
same,GI50,SF-295,> 100 µM (inactive)
same,GI50,RXF 393,> 100 µM (inactive)
same,GI50,HOP-62,> 100 µM (inactive)
same,GI50,SNB-75,> 100 µM (inactive)
same,GI50,U-251,> 100 µM (inactive)
same,GI50,MDA-MB-435,> 100 µM (inactive)
same,GI50,A498,> 100 µM (inactive)
same,GI50,TK-10,> 100 µM (inactive)
same,GI50,OVCAR-3,> 100 µM (inactive)
same,GI50,NCI-H522,> 100 µM (inactive)
same,GI50,SN12C,> 100 µM (inactive)
same,GI50,KM12,> 100 µM (inactive)
same,GI50,SW-620,> 100 µM (inactive)
same,GI50,MCF7,> 100 µM (inactive)
same,GI50,HOP-92,> 100 µM (inactive)
same,GI50,NCI-H23,> 100 µM (inactive)
same,GI50,COLO 205,> 100 µM (inactive)
same,GI50,SK-OV-3,> 100 µM (inactive)
same,GI50,UO-31,> 100 µM (inactive)
same,GI50,EKVX,92.3 µM (inactive)
same,GI50,T47D,> 100 µM (inactive)
same,GI50,MDA-N,> 100 µM (inactive)
same,GI50,SR,> 100 µM (inactive)
same,GI50,NCI/ADR-RES,> 100 µM (inactive)
same,GI50,ACHN,> 100 µM (inactive)
same,GI50,OVCAR-8,> 100 µM (inactive)
same,GI50,OVCAR-4,> 100 µM (inactive)
same,GI50,CAKI-1,> 100 µM (inactive)
same,GI50,SNB-19,> 100 µM (inactive)
same,GI50,CCRF-CEM,> 100 µM (inactive)
same,GI50,UACC-62,> 100 µM (inactive)
same,GI50,HL-60,> 100 µM (inactive)
same,GI50,NCI-H460,> 100 µM (inactive)
same,GI50,HCT-116,> 100 µM (inactive)
same,GI50,HCT-15,> 100 µM
